PMC10511319, “Bacterial pathogens deliver water- and solute-permeable channels to plant cells” (Nature, 2023)

Experiments:
AvrE [1] = target: T1, AvrE (Pseudomonas syringae group genomosp. 3, UniProt Q887C9); assay: oocyte fluorescent dye uptake; assay type: cell-based; conditions: 5 µg/ml fluorescein in ND96 saline; 20 ng avrE cRNA; permeation through channel
T1 construct: full-length untagged ORF in pGH19, cRNA-injected Xenopus laevis oocytes

DspE (MBP–DspE) = target: T2, DspE (MBP–DspE) (Erwinia amylovora, UniProt O54581); assay: liposome carboxyfluorescein release; assay type: biochemical; conditions: soybean liposomes; 0.05–0.15 µM DspE; 20 mM HEPES, 300 mM NaCl, pH 8.0; channel block
T2 construct: full-length DspE fused to MBP-His8-PPX-Flag; made in E. coli BL21(DE3)

DspE = target: T3, DspE (Erwinia amylovora, UniProt O54581); assay type: cell-based; conditions: current at 50 mV test pulse; ND96 saline, pH 7.5; channel block
T3 construct: full-length untagged ORF in pGH19, cRNA-injected Xenopus laevis oocytes; strain of oocyte clone not restated
T3 sequence (O54581 whole entry): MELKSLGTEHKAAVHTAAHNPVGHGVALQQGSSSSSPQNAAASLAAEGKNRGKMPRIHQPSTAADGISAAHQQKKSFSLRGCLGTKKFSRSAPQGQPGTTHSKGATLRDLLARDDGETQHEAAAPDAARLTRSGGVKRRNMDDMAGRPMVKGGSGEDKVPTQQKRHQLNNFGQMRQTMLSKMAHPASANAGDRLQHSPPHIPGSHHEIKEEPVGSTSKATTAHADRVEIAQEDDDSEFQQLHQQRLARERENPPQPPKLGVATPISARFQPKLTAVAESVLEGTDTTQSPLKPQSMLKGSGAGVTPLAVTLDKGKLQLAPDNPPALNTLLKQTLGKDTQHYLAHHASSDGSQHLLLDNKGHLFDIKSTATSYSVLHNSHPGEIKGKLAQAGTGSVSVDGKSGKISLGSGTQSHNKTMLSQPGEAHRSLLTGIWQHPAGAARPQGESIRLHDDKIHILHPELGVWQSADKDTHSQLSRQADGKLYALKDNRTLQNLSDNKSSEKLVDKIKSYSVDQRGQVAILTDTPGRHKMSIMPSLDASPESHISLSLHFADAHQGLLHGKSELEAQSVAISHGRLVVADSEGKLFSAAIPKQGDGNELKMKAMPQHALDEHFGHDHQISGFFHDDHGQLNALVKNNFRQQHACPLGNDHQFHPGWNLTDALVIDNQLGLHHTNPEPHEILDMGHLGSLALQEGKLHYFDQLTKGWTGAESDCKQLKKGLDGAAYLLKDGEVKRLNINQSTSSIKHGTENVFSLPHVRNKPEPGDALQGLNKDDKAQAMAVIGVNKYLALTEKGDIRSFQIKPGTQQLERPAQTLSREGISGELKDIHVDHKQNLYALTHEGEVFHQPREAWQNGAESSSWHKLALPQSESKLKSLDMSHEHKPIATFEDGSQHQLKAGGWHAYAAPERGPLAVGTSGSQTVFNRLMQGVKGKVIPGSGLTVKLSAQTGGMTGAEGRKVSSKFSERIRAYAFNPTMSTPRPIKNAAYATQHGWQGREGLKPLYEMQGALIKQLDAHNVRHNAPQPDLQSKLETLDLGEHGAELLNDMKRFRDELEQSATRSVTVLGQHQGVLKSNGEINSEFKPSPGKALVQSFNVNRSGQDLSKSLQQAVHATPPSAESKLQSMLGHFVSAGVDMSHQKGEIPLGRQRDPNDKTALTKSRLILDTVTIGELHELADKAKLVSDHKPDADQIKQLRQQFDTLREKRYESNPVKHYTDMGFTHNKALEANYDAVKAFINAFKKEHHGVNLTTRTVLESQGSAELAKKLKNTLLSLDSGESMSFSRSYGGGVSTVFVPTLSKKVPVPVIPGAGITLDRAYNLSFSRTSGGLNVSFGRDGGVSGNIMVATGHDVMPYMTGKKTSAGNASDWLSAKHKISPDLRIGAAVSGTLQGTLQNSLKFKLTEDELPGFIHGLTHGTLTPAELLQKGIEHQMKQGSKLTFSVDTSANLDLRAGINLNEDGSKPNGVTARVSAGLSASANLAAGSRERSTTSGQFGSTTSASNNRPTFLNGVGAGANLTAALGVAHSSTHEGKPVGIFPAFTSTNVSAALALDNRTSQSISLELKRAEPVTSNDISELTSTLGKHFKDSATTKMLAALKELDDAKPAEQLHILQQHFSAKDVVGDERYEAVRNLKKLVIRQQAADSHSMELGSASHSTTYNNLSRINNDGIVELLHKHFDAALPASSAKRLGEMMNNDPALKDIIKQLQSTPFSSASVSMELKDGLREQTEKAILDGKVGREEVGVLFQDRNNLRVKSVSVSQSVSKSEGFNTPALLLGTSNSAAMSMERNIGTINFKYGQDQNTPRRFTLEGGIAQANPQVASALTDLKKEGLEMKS

AvrE [2] = target: T1, AvrE; assay: two-electrode voltage clamp, Xenopus oocytes; assay type: cell-based; conditions: current at 50 mV test pulse; ND96 saline, pH 7.5; channel block

T1 sequence (Q887C9 whole entry): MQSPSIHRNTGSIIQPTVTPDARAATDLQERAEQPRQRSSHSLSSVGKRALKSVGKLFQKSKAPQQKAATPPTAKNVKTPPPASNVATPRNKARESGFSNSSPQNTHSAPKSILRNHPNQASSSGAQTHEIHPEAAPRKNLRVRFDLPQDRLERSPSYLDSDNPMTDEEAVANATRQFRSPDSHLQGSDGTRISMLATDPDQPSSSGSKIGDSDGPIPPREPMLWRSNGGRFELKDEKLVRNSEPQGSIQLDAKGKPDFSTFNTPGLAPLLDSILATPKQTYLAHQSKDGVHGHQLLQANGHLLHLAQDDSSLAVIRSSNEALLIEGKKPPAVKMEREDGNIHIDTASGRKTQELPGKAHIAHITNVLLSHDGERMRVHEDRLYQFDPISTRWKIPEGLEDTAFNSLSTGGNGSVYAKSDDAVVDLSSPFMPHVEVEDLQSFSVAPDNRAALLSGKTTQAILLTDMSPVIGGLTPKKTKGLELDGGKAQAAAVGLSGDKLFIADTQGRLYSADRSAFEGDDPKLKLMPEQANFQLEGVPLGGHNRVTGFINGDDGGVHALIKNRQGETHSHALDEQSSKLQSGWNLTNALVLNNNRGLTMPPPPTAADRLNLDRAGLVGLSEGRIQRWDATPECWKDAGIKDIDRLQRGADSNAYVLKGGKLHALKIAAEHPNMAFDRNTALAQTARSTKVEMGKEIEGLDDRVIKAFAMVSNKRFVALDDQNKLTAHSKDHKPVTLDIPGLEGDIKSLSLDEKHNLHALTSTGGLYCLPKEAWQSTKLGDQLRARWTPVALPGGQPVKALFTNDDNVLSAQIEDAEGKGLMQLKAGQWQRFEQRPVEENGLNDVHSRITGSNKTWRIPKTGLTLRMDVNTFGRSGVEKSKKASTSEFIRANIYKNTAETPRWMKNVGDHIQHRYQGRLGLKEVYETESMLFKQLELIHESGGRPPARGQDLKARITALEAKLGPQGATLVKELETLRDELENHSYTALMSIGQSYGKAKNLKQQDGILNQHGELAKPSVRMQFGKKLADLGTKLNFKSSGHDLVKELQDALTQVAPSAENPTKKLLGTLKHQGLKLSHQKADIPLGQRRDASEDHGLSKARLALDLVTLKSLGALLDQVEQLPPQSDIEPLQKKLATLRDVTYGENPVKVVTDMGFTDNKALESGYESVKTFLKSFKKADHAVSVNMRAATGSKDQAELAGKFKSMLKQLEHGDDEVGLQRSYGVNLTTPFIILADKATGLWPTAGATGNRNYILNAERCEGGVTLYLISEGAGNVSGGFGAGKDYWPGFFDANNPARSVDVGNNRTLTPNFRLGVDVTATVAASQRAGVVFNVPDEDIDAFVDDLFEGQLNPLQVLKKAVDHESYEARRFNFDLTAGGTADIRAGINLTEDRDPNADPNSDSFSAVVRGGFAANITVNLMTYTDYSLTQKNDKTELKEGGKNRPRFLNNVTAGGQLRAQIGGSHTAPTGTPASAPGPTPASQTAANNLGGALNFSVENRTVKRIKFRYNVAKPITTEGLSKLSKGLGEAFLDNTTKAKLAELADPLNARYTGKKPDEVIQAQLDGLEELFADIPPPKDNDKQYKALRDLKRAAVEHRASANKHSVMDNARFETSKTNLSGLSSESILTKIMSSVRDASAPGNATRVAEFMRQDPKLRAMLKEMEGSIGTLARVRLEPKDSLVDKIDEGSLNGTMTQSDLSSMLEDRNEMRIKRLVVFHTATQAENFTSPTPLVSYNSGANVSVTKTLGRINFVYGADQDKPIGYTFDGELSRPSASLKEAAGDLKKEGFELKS

## O=C1OC2(c3ccc(O)cc3Oc3cc(O)ccc32)c2ccccc21 [fluorescein]
AvrE [1]
  oocyte fluorescent dye uptake: fluorescein entered oocytes expressing DspE or AvrE, whereas eGFP could not

## PAMAM G1
DspE (MBP–DspE)
  IC50: 31 µM
DspE
  % inhibition at 10 mM: 71%
AvrE [2]
  % inhibition at 10 mM: 93%

## PAMAM G0
DspE
  % inhibition at 10 mM: 68%
